Results taken from patent US12077503B2, “Substituted cyclic amides and their use as herbicides” (FMC CORPORATION, priority 2015, dated 2024).

Key:
Type in all cases: in vivo
[1] = test system: giant foxtail (Setaria faberi); test: Test G Post-Emergence Protocol; conditions: Setaria faberi, post-emergence, 312 h; for pest or weed control at 15.625 g/ha: 15.625 g ai/ha, evaluated after 13 days (100=total damage to plant; 0=no damage to plant), read-out: Foxtail, Giant damage rating; for pest or weed control at 62.5 g/ha: 62.5 g ai/ha, read-out: Foxtail, Giant damage rating (100=total damage to plant; 0=no damage to plant); for pest or weed control at 62.5 g/ha / pest or weed control at 250 g/ha: evaluated after 13 days; for pest or weed control at 250 g/ha: 250 g ai/ha, read-out: damage to plant, Foxtail, Giant (100=total damage to plant; 0=no damage to plant)
Method in brief: (§1)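 Scores run 0 (no damage) to 100 (total damage) and were taken 13 days after spraying. Plants had been raised in pots for 8 days under glasshouse control (24/16 °C, 14 h photoperiod, 65% humidity) and then treated at 15.625, 62.5 or 250 g/ha.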

[2] = test system: redroot pigweed (Amaranthus retroflexus); test: Test G Post-Emergence Protocol; conditions: Amaranthus retroflexus, post-emergence, 312 h; for pest or weed control at 15.625 g/ha: 15.625 g ai/ha, evaluated after 13 days (100=total damage to plant; 0=no damage to plant), read-out: Pigweed, Redroot damage rating; for pest or weed control at 62.5 g/ha: 62.5 g ai/ha, read-out: Pigweed, Redroot damage rating (100=total damage to plant; 0=no damage to plant); for pest or weed control at 62.5 g/ha / pest or weed control at 250 g/ha: evaluated after 13 days; for pest or weed control at 250 g/ha: 250 g ai/ha, read-out: damage to plant, Pigweed, Redroot (100=total damage to plant; 0=no damage to plant)
Method in brief: as §1

[3] = test system: barnyardgrass (Echinochloa crus-galli); test: Test G Post-Emergence Protocol; conditions: Echinochloa crus-galli, post-emergence, 312 h; for pest or weed control at 15.625 g/ha: 15.625 g ai/ha, evaluated after 13 days (100=total damage to plant; 0=no damage to plant), read-out: Barnyardgrass damage rating; for pest or weed control at 62.5 g/ha: 62.5 g ai/ha, read-out: Barnyardgrass damage rating (100=total damage to plant; 0=no damage to plant); for pest or weed control at 62.5 g/ha / pest or weed control at 250 g/ha: evaluated after 13 days; for pest or weed control at 250 g/ha: 250 g ai/ha, read-out: damage to plant, Barnyardgrass (100=total damage to plant; 0=no damage to plant)
Method in brief: as §1

[4] = test system: ivy-leaved morning glory (Ipomoea hederacea); test: Test G Post-Emergence Protocol; conditions: Ipomoea, post-emergence, 312 h; for pest or weed control at 15.625 g/ha: 15.625 g ai/ha, evaluated after 13 days (100=total damage to plant; 0=no damage to plant), read-out: Morningglory, Ivy-leaved damage rating; for pest or weed control at 62.5 g/ha: 62.5 g ai/ha, read-out: Morningglory, Ivy-leaved damage rating (100=total damage to plant; 0=no damage to plant); for pest or weed control at 62.5 g/ha / pest or weed control at 250 g/ha: evaluated after 13 days; for pest or weed control at 250 g/ha: 250 g ai/ha, read-out: damage to plant, Morningglory, Ivy-leaved (100=total damage to plant; 0=no damage to plant)
Method in brief: as §1

[5] = test system: corn (Zea mays); test: Test G Post-Emergence Protocol; conditions: Zea mays, post-emergence, 312 h; for plant injury at 15.625 g/ha: 15.625 g ai/ha, evaluated after 13 days (100=total damage to plant; 0=no damage to plant), read-out: Corn damage rating; for plant injury at 62.5 g/ha: 62.5 g ai/ha, read-out: Corn damage rating (100=total damage to plant; 0=no damage to plant); for plant injury at 62.5 g/ha / plant injury at 250 g/ha: evaluated after 13 days; for plant injury at 250 g/ha: 250 g ai/ha, read-out: damage to plant, Corn (100=total damage to plant; 0=no damage to plant)
Method in brief: as §1

[6] = test system: velvetleaf (Abutilon theophrasti); test: Test G Post-Emergence Protocol; conditions: Abutilon theophrasti, post-emergence, 312 h; for pest or weed control at 15.625 g/ha: 15.625 g ai/ha, evaluated after 13 days (100=total damage to plant; 0=no damage to plant), read-out: Velvetleaf damage rating; for pest or weed control at 62.5 g/ha: 62.5 g ai/ha, read-out: Velvetleaf damage rating (100=total damage to plant; 0=no damage to plant); for pest or weed control at 62.5 g/ha / pest or weed control at 250 g/ha: evaluated after 13 days; for pest or weed control at 250 g/ha: 250 g ai/ha, read-out: damage to plant, Velvetleaf (100=total damage to plant; 0=no damage to plant)
Method in brief: as §1

[7] = test system: giant foxtail (Setaria faberi); test: Test G Pre-Emergence Protocol; conditions: Setaria faberi, pre-emergence, 312 h, evaluated after 13 days; for pest or weed control at 15.625 g/ha: 15.625 g ai/ha; for pest or weed control at 15.625 g/ha / pest or weed control at 250 g/ha: read-out: Foxtail, Giant damage rating (100=total damage to plant; 0=no damage to plant); for pest or weed control at 62.5 g/ha: 62.5 g ai/ha, 100=total damage to plant, 0=no damage to plant, read-out: plant damage rating, Foxtail, Giant; for pest or weed control at 250 g/ha: 250 g ai/ha
Method in brief: (§2)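 Scores are visual damage ratings from 0 (no damage) to 100 (total plant kill), taken 13 days after treatment. Compound was sprayed one day post-sowing at 15.625, 62.5 or 250 g/ha in 50:50 acetone/water with 0.5% Tween 20.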

[8] = test system: redroot pigweed (Amaranthus retroflexus); test: Test G Pre-Emergence Protocol; conditions: Amaranthus retroflexus, pre-emergence, 312 h, evaluated after 13 days; for pest or weed control at 15.625 g/ha: 15.625 g ai/ha; for pest or weed control at 15.625 g/ha / pest or weed control at 250 g/ha: read-out: Pigweed, Redroot damage rating (100=total damage to plant; 0=no damage to plant); for pest or weed control at 62.5 g/ha: 62.5 g ai/ha, 100=total damage to plant, 0=no damage to plant, read-out: plant damage rating, Pigweed, Redroot; for pest or weed control at 250 g/ha: 250 g ai/ha
Method in brief: as §2

[9] = test system: barnyardgrass (Echinochloa crus-galli); test: Test G Pre-Emergence Protocol; conditions: Echinochloa crus-galli, pre-emergence, 312 h, evaluated after 13 days; for pest or weed control at 15.625 g/ha: 15.625 g ai/ha, read-out: Barnyard grass damage rating (100=total damage to plant; 0=no damage to plant); for pest or weed control at 62.5 g/ha: 62.5 g ai/ha, 100=total damage to plant, 0=no damage to plant, read-out: plant damage rating, Barnyardgrass; for pest or weed control at 250 g/ha: 250 g ai/ha, read-out: Barnyardgrass damage rating (100=total damage to plant; 0=no damage to plant)
Method in brief: as §2

[10] = test system: ivy-leaved morning glory (Ipomoea hederacea); test: Test G Pre-Emergence Protocol; conditions: Ipomoea, pre-emergence, 312 h, evaluated after 13 days; for pest or weed control at 15.625 g/ha: 15.625 g ai/ha, read-out: Morning-glory, Ivy-leaved damage rating (100=total damage to plant; 0=no damage to plant); for pest or weed control at 62.5 g/ha: 62.5 g ai/ha, 100=total damage to plant, 0=no damage to plant, read-out: plant damage rating, Morningglory, Ivy-leaved; for pest or weed control at 250 g/ha: 250 g ai/ha, read-out: Morningglory, Ivy-leaved damage rating (100=total damage to plant; 0=no damage to plant)
Method in brief: as §2

[11] = test system: corn (Zea mays); test: Test G Pre-Emergence Protocol; conditions: Zea mays, pre-emergence, 312 h, evaluated after 13 days; for plant injury at 15.625 g/ha: 15.625 g ai/ha; for plant injury at 15.625 g/ha / plant injury at 250 g/ha: read-out: Corn damage rating (100=total damage to plant; 0=no damage to plant); for plant injury at 62.5 g/ha: 62.5 g ai/ha, 100=total damage to plant, 0=no damage to plant, read-out: plant damage rating, Corn; for plant injury at 250 g/ha: 250 g ai/ha
Method in brief: as §2

[12] = test system: velvetleaf (Abutilon theophrasti); test: Test G Pre-Emergence Protocol; conditions: Abutilon theophrasti, pre-emergence, 312 h, evaluated after 13 days; for pest or weed control at 15.625 g/ha: 15.625 g ai/ha; for pest or weed control at 15.625 g/ha / pest or weed control at 250 g/ha: read-out: Velvetleaf damage rating (100=total damage to plant; 0=no damage to plant); for pest or weed control at 62.5 g/ha: 62.5 g ai/ha, 100=total damage to plant, 0=no damage to plant, read-out: plant damage rating, Velvetleaf; for pest or weed control at 250 g/ha: 250 g ai/ha
Method in brief: as §2

Structure (SMILES)	pest or weed control at 15.625 g/ha [1]	pest or weed control at 62.5 g/ha [1]	pest or weed control at 250 g/ha [1]	pest or weed control at 15.625 g/ha [2]	pest or weed control at 62.5 g/ha [2]	pest or weed control at 250 g/ha [2]	pest or weed control at 15.625 g/ha [3]	pest or weed control at 62.5 g/ha [3]	pest or weed control at 250 g/ha [3]	pest or weed control at 15.625 g/ha [4]	pest or weed control at 62.5 g/ha [4]	pest or weed control at 250 g/ha [4]	plant injury at 15.625 g/ha [5]	plant injury at 62.5 g/ha [5]	plant injury at 250 g/ha [5]	pest or weed control at 15.625 g/ha [6]	pest or weed control at 62.5 g/ha [6]	pest or weed control at 250 g/ha [6]	pest or weed control at 15.625 g/ha [7]	pest or weed control at 62.5 g/ha [7]	also measured
CN1C[C@@H](c2ccc(C(F)(F)F)cc2)[C@H](C(=O)Nc2ncc(Cl)s2)C1=O (racemic) [Compound 1569]	0%	0%	0%	0%	0%	0%	0%	10%	20%	0%	0%	0%	0%	0%	0%	0%	0%	0%	0%	0%	pest or weed control at 250 g/ha [7]: 0%; pest or weed control at 15.625 g/ha [8]: 0%; pest or weed control at 62.5 g/ha [8]: 0%; pest or weed control at 250 g/ha [8]: 0%; pest or weed control at 15.625 g/ha [9]: 0%; pest or weed control at 62.5 g/ha [9]: 0%; pest or weed control at 250 g/ha [9]: 0%; pest or weed control at 15.625 g/ha [10]: 0%; pest or weed control at 62.5 g/ha [10]: 0%; pest or weed control at 250 g/ha [10]: 0%; plant injury at 15.625 g/ha [11]: 0%; plant injury at 62.5 g/ha [11]: 0%; plant injury at 250 g/ha [11]: 0%; pest or weed control at 15.625 g/ha [12]: 0%; pest or weed control at 62.5 g/ha [12]: 0%; pest or weed control at 250 g/ha [12]: 0%
CN1C[C@@H](c2ccc(C(F)(F)F)cc2)[C@H](C(=O)Nc2cccnc2Cl)C1=O (racemic) [Compound 1517]	20%	60%	60%	0%	0%	20%	0%	50%	70%	20%	30%	70%	0%	10%	80%	0%	10%	20%	30%	70%	pest or weed control at 250 g/ha [7]: 80%; pest or weed control at 15.625 g/ha [8]: 0%; pest or weed control at 62.5 g/ha [8]: 0%; pest or weed control at 250 g/ha [8]: 60%; pest or weed control at 15.625 g/ha [9]: 0%; pest or weed control at 62.5 g/ha [9]: 70%; pest or weed control at 250 g/ha [9]: 90%; pest or weed control at 15.625 g/ha [10]: 0%; pest or weed control at 62.5 g/ha [10]: 0%; pest or weed control at 250 g/ha [10]: 0%; plant injury at 15.625 g/ha [11]: 0%; plant injury at 62.5 g/ha [11]: 0%; plant injury at 250 g/ha [11]: 20%; pest or weed control at 15.625 g/ha [12]: 0%; pest or weed control at 62.5 g/ha [12]: 0%; pest or weed control at 250 g/ha [12]: 0%
